In BindingDB's records for doi:10.1016/j.bmcl.2010.10.020 (Incyte, 2010):

How the values were obtained:
[1] = Antagonist activity at human CCR2 assessed as inhibition of MCP1 induced chemotaxis after 30 mins
[2] = Antagonist activity at mouse CCR2 assessed as inhibition of MCP1 induced chemotaxis after 30 mins

IC50 [1] [nM] | IC50 [2] [nM] | Structure (SMILES)
3 | 444 | CCO[C@H]1CN([C@H]2CC[C@@](O)(c3ccccc3)CC2)C[C@@H]1NC(=O)CNC(=O)c1cccc(C(F)(F)F)c1 [N-(2-((3S,4S)-4-ethoxy-1-(cis-4-hydroxy-4-phenylcyclohexyl)pyrrolidin-3-ylamino)-2-oxoethyl)-3-(trifluoromethyl)benzamide]
12 | 265 | O=C(CNC(=O)c1cccc(C(F)(F)F)c1)N[C@H]1CN([C@H]2CC[C@@H](c3ccccc3)CC2)C[C@@H]1O [N-(2-((3S,4S)-4-hydroxy-1-(cis-4-phenylcyclohexyl)pyrrolidin-3-ylamino)-2-oxoethyl)-3-(trifluoromethyl)benzamide]
6.5 | 14 | CCO[C@H]1CN([C@H]2CC[C@@H](c3ccccc3)CC2)C[C@@H]1NC(=O)CNC(=O)c1cccc(C(F)(F)F)c1 [N-(2-((3S,4S)-4-ethoxy-1-(cis-4-phenylcyclohexyl)pyrrolidin-3-ylamino)-2-oxoethyl)-3-(trifluoromethyl)benzamide]
1.4 | 13 | CCO[C@H]1CN([C@H]2CC[C@@](O)(c3ccc(C)cc3)CC2)C[C@@H]1NC(=O)CNC(=O)c1cccc(C(F)(F)F)c1 [N-(2-((3S,4S)-4-ethoxy-1-(cis-4-hydroxy-4-p-tolylcyclohexyl)pyrrolidin-3-ylamino)-2-oxoethyl)-3-(trifluoromethyl)benzamide]
1.8 | 158 | CCCO[C@H]1CN([C@H]2CC[C@@H](c3ccccc3)CC2)C[C@@H]1NC(=O)CNC(=O)c1cccc(C(F)(F)F)c1 [N-(2-oxo-2-((3S,4S)-1-(cis-4-phenylcyclohexyl)-4-propoxypyrrolidin-3-ylamino)ethyl)-3-(trifluoromethyl)benzamide]
